In publication PMC10747112, “Triphenylphosphine Derivatives of Allylbenzenes Express Antitumor and Adjuvant Activity When Solubilized with Cyclodextrin-Based Formulations” (Pharmaceuticals, 2023):

Tests used:
erythrocytes = test: Hemolytic activity; assay type: cell-based; details: 0.1 mg/mL
Description: (§1) Hemolytic activity and thrombogenicity are the primary parameters for evaluating the safety of medical formulations. The phenotypic sea urchin embryo assay developed by colleagues is a visual way to study the toxicity of formulations in vivo. The sea urchin and human genomes contain more than 7000 common genes, including orthologs associated with a number of human diseases. Therefore, sea urchins can be considered as a reliable and versatile model organism for studying the safety of new and existing cytotoxic formulations in vivo. Table 5 presents data on the % of erythrocyte hemolysis, the degree of whole blood thrombosis of apiol-PPh3 and analogues, and data of phenotypic sea urchin embryo assay. Thus, the non-toxicity of PPh3 derivatives of allylbenzenes for normal non-cancer cells, as well as the selectivity of action against cancer cells, is shown. The selectivity of cytotoxic action against cancer cells in comparison with normal cells can be explained by the fact that the PPh3- cation provides selective accumulation and reduction in the mitochondrial membrane potential of the transformed cancer cells. Cyclodextrin (M-β-CD) and heparin are non-toxic (and approved by the FDA for intravenous application).
(§2) The hemolytic activity and thrombogenicity of apiol-PPh3 and analogues were studied using an earlier published technique.

A549 cells [1] = test: MTT assay, synergy of adjuvants with paclitaxel against A549; assay type: cell-based, human; details: X − M-β-CD, SC = CV(paclitaxel) × CV(adjuvant)/CV(combo)
Description: Apparently PPh3 derivatives effectively penetrate into cancer cells along a potential gradient, inhibit efflux proteins and mitochondrial enzymes, causing the apoptosis of cancer cells, with IC50 values being lower by two orders of magnitude than the corresponding allylbenzene (Table 3). […] For allylbenzenes, a synergy close to additivity (the cytostatic effect of adjuvant + paclitaxel is almost equal to the sum of their individual contributions) was observed; for PPh3 derivatives, a pronounced increase in the action of paclitaxel is characteristic (the cytostatic effect of adjuvant + paclitaxel is much higher (>) than the sum of their individual contributions). For apiol-PPh3, the most pronounced effect of increasing the activity of paclitaxel was observed (Figure 4b).
Figure 4 Viability of A549 cells in the presence of paclitaxel and allylbenzenes’ PPh3 derivatives in the form of complexes with M-β-CD (1:5 mol/mol). MTT assay. (a) Dose–effect graphs. (b) MTT assay results for 100 nM paclitaxel alone and combined with allylbenzenes’ PPh3 derivatives in the form of complexes with M-β-CD (1:5 mol/mol).
(§3) The cytotoxic activity of paclitaxel, Apiol-PPh3 and analogues was determined using an MTT test. Paclitaxel-adjuvant synergism coefficients (SC) were calculated as CV (paclitaxel) × CV (alone adjuvant)/CV (combo paclitaxel + adjuvant), where CV represents the cell viability. The synergy coefficient can be interpreted as strong synergy (SC > 2), synergy (2 > SC > 1.2), indifference/additivity (1.2 > SC > 0.8), antagonism (0.8 > SC > 0.5), and inhibition (SC < 0.5), as described earlier.

A549 cells [2] = test: MTT assay, cytotoxic activity against A549; assay type: cell-based; details: Homo sapiens, A549; X in M-β-CD 1:5 mol/mol; MTT; read-out: −lg (IC50) of X in M-β-CD against A549 (converted)
Procedure: Concentrations of the active substance varied from 10^−2 to 10^−4 M. For MTT assay and biological experiments, substances in the concentration range from 10^−3 to 10^−9 M were studied by the dilution of initial ones in a cell growth medium or buffer.
(§4) Adenocarcinomic human alveolar basal epithelial cells A549 cell lines (Manassas, VA, USA) were cultured in RPMI-1640 medium, linear cells of the embryonic kidney human epithelium (HEK293T) were grown in DMEM medium as described earlier. Cell lines were obtained from Lomonosov Moscow State University Depository of Live Systems Collection and Laboratory of Medical Biotechnology, Institute of Biomedical Chemistry (Moscow, Russia).
as §3

whole blood = test: Thrombogenicity (whole blood thrombosis); details: 0.1 mg/mL
Description: as §1, §2

in vitro = assay type: cell-based; details: human
Procedure: HEK293T are model normal (non-cancer) cells that are widely used to compare the selectivity of cytostatic formulations on cancer cells. According to the MTT test, the concentration of cytostatics of 100 µM causes the death of up to 85% of cancer cells A549 (Figure 4a), while for non-cancer cells (HEK293T), the dying rate is only 15–20%.
as §4, §3

HEK293T cells = test: FTIR spectroscopy of HEK293T cells during incubation with drug (penetration/adsorption); assay type: cell-based, human; details: 60 min incubation (apiol-PPh3 in M-β-CD) or pre-incubation (doxorubicin controls); 37 °C
Description: The main cell structural units that contribute to the absorption of IR diapason can be assigned as follows (Figure 5): lipids of the cell membrane (2800–3000 cm^−1), proteins, especially transmembrane (1500–1700 cm^−1), phosphate groups of DNA (1240 cm^−1) and carbohydrates, including lipopolysaccharides (900–1100 cm^−1). Previously, we developed a technique for tracking the penetration and adsorption of the drug into cells using FTIR spectroscopy: dramatic changes in the intensity of the peaks of amide 1 and amide 2 indicate effective penetration of the drug into cells and vice versa.
Here, we present the real-time data of FTIR spectroscopy during the incubation of a suspension of HEK293T cells with apiol-PPh3 in M-β-CD (Figure 5). […] There is only a shift of the peak of amide 1 to the low-frequency region (inserts in Figure 5, the normalized intensity is shown) and amide 2 to the high-frequency region with the simultaneous appearance of the shoulder. This indicates the only adsorption of drug molecules on the cell surface, which is also confirmed by a weak increase in the intensity of the peaks at 2850–3000 cm^−1 corresponding to the valence vibrations of the CH2 groups (lipid bilayer). Thus, PPh3 derivatives show only marginal activity against normal cells.

With COc1cc(CCC[P+](c2ccccc2)(c2ccccc2)c2ccccc2)c(OC)c(OC)c1OC [Allyltetramethoxybenzene-PPh3] the “Hemolysis Index” value (erythrocytes) was 0.7 ± 0.1%, the “Synergy Coefficients of Adjuvants and PPh3–Adjuvants with Paclitaxel” value (from here on “Synergy Coefficients”) (A549 cells [1]) was 1.3 ± 0.1 and the IC50 (A549 cells [2]) was 15.8 µM. For the same molecule, the “Thrombosis Index” value (whole blood) was 0.7 ± 0.2%, the viability at 10 µM (in vitro) was 98 ± 1% and the viability at 100 µM (in vitro) was 88 ± 3%. The viability at 300 µM (in vitro) was 83 ± 4%.
With COc1cc(CCC[P+](c2ccccc2)(c2ccccc2)c2ccccc2)cc2c1OCO2 [Myristicin-PPh3] the “Hemolysis Index” value (erythrocytes) was 0.5 ± 0.1%, the “Synergy Coefficients” value (A549 cells [1]) was 1.8 ± 0.3 and the IC50 (A549 cells [2]) was 5.01 µM. The “Thrombosis Index” value (whole blood) was 1.5 ± 0.2%, the viability at 10 µM (in vitro) was 97 ± 3% and the viability at 100 µM (in vitro) was 91 ± 2%. For the same molecule, the viability at 300 µM (in vitro) was 75 ± 3%.
With COc1c(CCC[P+](c2ccccc2)(c2ccccc2)c2ccccc2)cc2c(c1OC)OCO2 [Dillapiol-PPh3] the “Hemolysis Index” value (erythrocytes) was 0.9 ± 0.2%, the “Synergy Coefficients” value (A549 cells [1]) was 1.5 ± 0.1 and the IC50 (A549 cells [2]) was 2.51 µM. The “Thrombosis Index” value (whole blood) was 1.0 ± 0.1%, the viability at 10 µM (in vitro) was 95 ± 3% and the viability at 100 µM (in vitro) was 84 ± 5%. It also gave a viability at 300 µM (in vitro) of 70 ± 5%.
In the case of COc1cc(CCC[P+](c2ccccc2)(c2ccccc2)c2ccccc2)c(OC)c2c1OCO2 [Apiol-PPh3], the “Hemolysis Index” value (erythrocytes) is reported as 0.8 ± 0.2%, the “Synergy Coefficients” value (A549 cells [1]) is reported as 2.2 ± 0.2 and the “changes in FTIR amide I and II peak intensity of HEK293T cells (drug penetration)” value (HEK293T cells) is reported as “practically no changes in the intensity of the peaks of amide I and II”. The IC50 (A549 cells [2]) was 1.58 µM, the “Thrombosis Index” value (whole blood) was 1.1 ± 0.2% and the viability at 10 µM (in vitro) was 93 ± 2%. For the same molecule, the viability at 100 µM (in vitro) was 82 ± 3% and the viability at 300 µM (in vitro) was 71 ± 2%.
